In ChEMBL document CHEMBL1156696, “Structure activity relationships of quinoline-containing c-Met inhibitors” (Eur J Med Chem, 2008):
pKi: −log10 of the molar value.

Key:
[1] = target: T1, Hepatocyte growth factor receptor (Homo sapiens, UniProt P08581); assay: Inhibition of human activated c-Met by PK/LDH coupled kinetic assay
[2] = target: T1, Hepatocyte growth factor receptor; assay: Inhibition of human activated c-Met at 1 uM by PK/LDH coupled kinetic assay

T1 sequence (P08581 whole entry): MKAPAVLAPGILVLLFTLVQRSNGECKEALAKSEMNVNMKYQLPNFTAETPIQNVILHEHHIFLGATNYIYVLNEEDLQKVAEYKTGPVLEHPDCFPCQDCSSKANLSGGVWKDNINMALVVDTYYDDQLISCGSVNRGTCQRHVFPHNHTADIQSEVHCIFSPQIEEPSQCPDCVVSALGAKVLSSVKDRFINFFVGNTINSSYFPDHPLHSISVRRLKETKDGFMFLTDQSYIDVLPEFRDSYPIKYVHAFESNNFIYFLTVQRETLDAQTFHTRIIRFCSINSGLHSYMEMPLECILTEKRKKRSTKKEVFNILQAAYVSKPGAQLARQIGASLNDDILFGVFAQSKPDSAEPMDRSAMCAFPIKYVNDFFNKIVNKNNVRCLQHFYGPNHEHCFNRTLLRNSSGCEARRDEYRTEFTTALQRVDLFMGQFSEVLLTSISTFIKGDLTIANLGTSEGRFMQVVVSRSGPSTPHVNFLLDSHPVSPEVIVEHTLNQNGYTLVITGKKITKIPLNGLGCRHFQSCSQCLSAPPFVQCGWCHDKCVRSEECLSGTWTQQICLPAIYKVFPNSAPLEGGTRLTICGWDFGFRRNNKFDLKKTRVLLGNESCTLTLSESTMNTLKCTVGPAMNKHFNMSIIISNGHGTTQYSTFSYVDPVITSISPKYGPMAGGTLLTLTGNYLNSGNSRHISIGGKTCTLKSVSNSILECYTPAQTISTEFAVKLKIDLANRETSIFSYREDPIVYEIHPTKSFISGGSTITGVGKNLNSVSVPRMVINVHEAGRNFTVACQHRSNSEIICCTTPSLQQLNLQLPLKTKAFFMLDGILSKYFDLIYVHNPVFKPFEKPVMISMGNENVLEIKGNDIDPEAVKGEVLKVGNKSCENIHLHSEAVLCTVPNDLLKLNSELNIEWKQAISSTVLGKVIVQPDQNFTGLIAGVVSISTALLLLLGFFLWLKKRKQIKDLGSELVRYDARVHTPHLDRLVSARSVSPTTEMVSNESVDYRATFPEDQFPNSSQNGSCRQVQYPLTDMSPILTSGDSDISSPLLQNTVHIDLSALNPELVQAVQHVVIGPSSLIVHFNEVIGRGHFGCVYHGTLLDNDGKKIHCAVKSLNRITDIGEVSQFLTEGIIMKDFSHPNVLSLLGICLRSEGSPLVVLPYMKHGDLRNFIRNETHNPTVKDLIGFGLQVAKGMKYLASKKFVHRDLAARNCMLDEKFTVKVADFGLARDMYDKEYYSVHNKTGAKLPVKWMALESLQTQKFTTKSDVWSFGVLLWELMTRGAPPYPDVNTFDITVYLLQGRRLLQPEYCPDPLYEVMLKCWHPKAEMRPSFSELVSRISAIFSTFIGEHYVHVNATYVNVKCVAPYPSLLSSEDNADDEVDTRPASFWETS

pKi [1] | inhibition [2] [%] | SMILES
< 4.52 |  | COc1cc2nccc(Oc3ccc(NC(=O)N4CCNCC4)nc3)c2cc1OC
 | 2 | COc1cc2nccc(Oc3ccc(N)nc3)c2cc1OC
